Source: patent US20240327354A1, “GRAM-NEGATIVE BACTERIA EFFLUX PUMP INHIBITORS” (INSTITUT NATIONAL DE LA SANTÉ ET DE LA RECHERCHE MÉDICALE, priority 2021, published 2024)
Where a name gives a salt, the structure may show the parent alone.

Key:
[1] = test system: E. coli BW25113; experiment: Assay 4: boosting of antibiotic activity by EPI example 37 in E. coli; assay type: cell-based, Escherichia coli; details: MIC of the named antibiotic boosted by 100 μM example 37
From the text: (§1) Escherichia coli BW25113 (CGSC 7636) and its derivatives E. coli ΔtolC (JW5503-1, ΔtolC732::kan, CGSC 11430), E. coli ΔacrA (JW0452-3, ΔacrA748::kan, CGSC 11843) and E. coli ΔacrB (JW0451-2, ΔacrB747::kan, CGSC 8609) were obtained from E. coli Genetic Stock Center (CGSC, New Haven, Connecticut) and originated from the Keio Collection (Baba T et al, Mol Sys Biol, 2006). Klebsiella pneumoniae (LMG 2095/ATCC 13883) and K. pneumoniae (ATCC43816), Pseudomonas aeruginosa (PAO1), Acinetobacter baumannii (LMG 1025, ATCC 17978), were obtained from ATCC or BCCM/LMG Bacteria Collection. All bacteria were grown and tested in cation-adjusted Mueller-Hinton broth (CAMHB; BD Difco) at 37° C. For conservation, log phase bacteria were frozen (−80° C.) in CAMHB supplemented with 15% glycerol.
(§2) Measurement of the Impact of EPI Example 37 on the Boosting of Antibiotic Activity in E. coli, A. baumannii, K. pneumoniae and P. aeruginosa.
(§3) Bacterial suspensions were then prepared in CAMHB from a growing pre-culture, (E. coli [OD600=0.001], A. baumannii [OD600=0.001], K. pneumoniae [OD600=0.001] and P. aeruginosa [OD600=0.001]), and added to the microplate using a ViaFill. Microplate containing bacterial cultures were then grown (5 h or 24 h, 37° C.) and bacterial viability determined by either resazurin reduction or OD600.

[2] = test system: K. pneumoniae ATCC13883; experiment: Assay 4: boosting of antibiotic activity by EPI example 37 in K. pneumoniae ATCC13883; assay type: cell-based, Klebsiella pneumoniae
From the text: as §1, §2, §3

[3] = test system: K. pneumoniae ATCC43816; experiment: Assay 4: boosting of antibiotic activity by EPI example 37 in K. pneumoniae ATCC43816; assay type: cell-based, Klebsiella pneumoniae; details: MIC of the named antibiotic boosted by 100 μM example 37
From the text: as §1, §2, §3

[4] = test system: A. baumannii LMG; experiment: Assay 4: boosting of antibiotic activity by EPI example 37 in A. baumannii; assay type: cell-based, Acinetobacter baumannii; details: MIC of the named antibiotic boosted by 100 μM example 37
From the text: as §1, §2, §3

[5] = test system: P. aeruginosa PAO1; experiment: Assay 4: boosting of antibiotic activity by EPI example 37 in P. aeruginosa; assay type: cell-based, Pseudomonas aeruginosa; details: MIC of the named antibiotic boosted by 100 μM example 37
From the text: as §1, §2, §3

[6] = test system: A. baumannii LMG 1025 (ATCC 17978); experiment: Assay 2: growth inhibition of A. baumannii by sub-inhibitory chloramphenicol in combination with examples (resazurin reduction); assay type: cell-based, Acinetobacter baumannii; details: read-out: EC90 on A. baumannii with 10 μg/mL of chloramphenicol, 10 μg/mL chloramphenicol, 5 h or 24 h, 37° C.
From the text: as §1
Measurement of Growth Inhibition of A. baumannii Strains by Sub Inhibitory Concentrations of Chloramphenicol in Combination with Examples 1-137
(§4) For the evaluation of the dose dependent activity of examples 1-137, their ability to boost the antibacterial activity of sub-inhibitory concentrations chloramphenicol was determined. Briefly, A. baumannii LMG 1025 (ATCC 17978) were diluted from frozen or growing stocks to an OD600 of 0.001 in CAMHB. The bacterial suspension was then used as such (no-antibiotic control to evaluate EPI activity), or spiked with chloramphenicol at a final concentration of 10 μg/mL. Bacteria were then added to microplates carrying serial dilutions of the compounds examples 1-137, and incubated for (5 h or 24 h, 37° C.). Bacterial viability was evaluated using the resazurin reduction assay, and measured by fluorescence (POLARstar Omega, BMG Labtech: Ex: 530 nm Em: 590 nm). […] were defined as the compound concentration that prevented 90% of resazurin turnover compared to the non-treated bacteria.

[7] = test system: A. baumannii LMG 1025 (ATCC 17978); experiment: Assay 3: growth inhibition of A. baumannii by sub-inhibitory novobiocin in combination with examples (resazurin reduction); assay type: cell-based, Acinetobacter baumannii; details: 5 μg/mL novobiocin, 5 h or 24 h, 37° C., read-out: EC90 on A. baumannii with 5 μg/mL of novobiocin
From the text: as §1
Measurement of growth Inhibition of A. baumannii strains by sub Inhibitory concentrations of novobiocin In combination with examples 1-137
as §4, with “concentrations novobiocin” for “concentrations chloramphenicol”, “such (no—antibiotic” for “such (no-antibiotic”, “with novobiocin” for “with chloramphenicol”, “of 5” for “of 10”

[8] = test system: E. coli BW25113; experiment: Assay 1: growth inhibition of E. coli by sub-inhibitory pyridomycin in combination with examples (resazurin reduction); assay type: cell-based, Escherichia coli; details: read-out: EC50 on E. coli with 8 μg/mL of pyridomycin, 8 μg/mL pyridomycin, 5 h, 37° C.
Procedure, shortened: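 E. coli BW25113 at OD600 0.0004–0.001 was grown in CAMHB at 37 °C. Viability was read by resazurin reduction fluorescence (Ex 530/Em 590 nm). EC50 is the concentration preventing 50% of resazurin turnover relative to untreated bacteria.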

[9] = MIC of the named antibiotic boosted by 100 μM example 37

| SMILES | E. coli BW25113 Fold Boosted MIC By 100 μM example 37 [1] | K. pneumoniae ATCC13883 Fold Boosted MIC By 100 μM example 37 [2, 9] | K. pneumoniae ATCC43816 Fold Boosted MIC By 100 μM example 37 [3] | EC90 [7] | EC50 [8] | other results |
| --- | --- | --- | --- | --- | --- | --- |
| Oc1cc(Cl)ccc1Oc1ccc(Cl)cc1Cl [Triclosan (TRC), Triclosan] | * (* = 2-3.9 fold) | *** (*** = 8 fold +) | *** (*** = 8 fold +) |  |  | A. baumannii LMG Fold Boosted MIC By 100 μM example 37 [4]: * (* = 2-3.9 fold) |
| CC[C@H]1OC(=O)[C@H](C)[C@@H](O[C@H]2C[C@@](C)(OC)[C@@H](O)[C@H](C)O2)[C@H](C)[C@@H](O[C@@H]2O[C@H](C)C[C@H](N(C)C)[C@H]2O)[C@](C)(O)C[C@@H](C)CN(C)[C@H](C)[C@@H](O)[C@]1(C)O [Azithromycin (AZY), Azithromycin] |  | ** (** = 4-7.9 fold) | ** (** = 4-7.9 fold) |  |  | P. aeruginosa PAO1 Fold Boosted MIC By 100 μM example 37 [5]: *** (*** = 8 fold +) |
| CC1(C)S[C@@H]2[C@H](NC(=O)[C@H](N)c3ccccc3)C(=O)N2[C@H]1C(=O)O [Ampicillin (AMP), Ampicillin] | * (* = 2-3.9 fold) |  |  |  |  |  |
| CO/N=C(\C(=O)N[C@@H]1C(=O)N2C(C(=O)[O-])=C(C[N+]3(C)CCCC3)CS[C@H]12)c1csc(N)n1 [Cefepime (CEP), Cefepime] |  |  | * (* = 2-3.9 fold) |  |  |  |
| Brc1cnc(N[C@H]2[C@@H]3CNC[C@@H]32)c2ccccc12 [Example 58, N-[(1R,5S)-3-azabicyclo[3.1.0]hexan-6-yl]-4-bromo-isoquinolin-1-amine;hydrochloride] |  |  |  | 100 to 500 µM | 5 to 100 µM | EC90 [6]: 100 to 500 µM |
| NCc1cc(-c2ccc3nc(N4CCNCC4)c(Cl)cc3c2)ccc1F [Example 130, [5-(3-chloro-2-piperazin-1-yl-6-quinolyl)-2-fluoro-phenyl]methanamine;dihydrochloride] |  |  |  | 5 to 100 µM | < 5 µM | EC90 [6]: 5 to 100 µM |
| CC(=O)O[C@H]1C[C@@]2(C)[C@@H](C[C@@H](O)[C@H]3[C@@]4(C)CC[C@@H](O)[C@@H](C)[C@@H]4CC[C@@]32C)/C1=C(\CCC=C(C)C)C(=O)O [Fusidic Acid (FUS), Fusidic Acid] | *** (*** = 8 fold +) |  | ** (** = 4-7.9 fold) |  |  | K. pneumoniae ATCC13883 Fold Boosted MIC By 100 μM example 37 ([2]; 100 μM example 37): 2-4 fold |
| CC(=O)NC[C@H]1CN(c2ccc(N3CCOCC3)c(F)c2)C(=O)O1 [Linezolid (LIN), Linezolid] | *** (*** = 8 fold +) | *** (*** = 8 fold +) | *** (*** = 8 fold +) |  |  | P. aeruginosa PAO1 Fold Boosted MIC By 100 μM example 37 [5]: * (* = 2-3.9 fold); A. baumannii LMG Fold Boosted MIC By 100 μM example 37 [4]: * (* = 2-3.9 fold) |
| CNCc1cccc(-c2ccc3nc(N4CCNCC4)c(Cl)cc3c2)c1 [Example 109, 1-[3-(3-chloro-2-piperazin-1-yl-6-quinolyl)phenyl]-N-methyl-methanamine;dihydrochloride] |  |  |  | 5 to 100 µM | < 5 µM | EC90 [6]: 5 to 100 µM |
| [H]/N=C(/N)N[C@H]1[C@H](O)[C@@H](O)[C@H](O[C@@H]2O[C@@H](C)[C@](O)(C=O)[C@H]2O[C@@H]2O[C@@H](CO)[C@H](O)[C@@H](O)[C@@H]2NC)[C@@H](N/C(N)=N\[H])[C@@H]1O [Streptomycin (STP), Streptomycin] |  |  |  |  |  | P. aeruginosa PAO1 Fold Boosted MIC By 100 μM example 37 [5]: * (* = 2-3.9 fold) |
| Cc1onc(-c2ccccc2)c1C(=O)N[C@@H]1C(=O)N2[C@@H]1SC(C)(C)[C@@H]2C(=O)O [Oxacillin (OXA), Oxacillin] | *** (*** = 8 fold +) | *** (*** = 8 fold +) | *** (*** = 8 fold +) |  |  | P. aeruginosa PAO1 Fold Boosted MIC By 100 μM example 37 [5]: * (* = 2-3.9 fold) |
| O=C(O)c1cn(C2CC2)c2cc(N3CCNCC3)c(F)cc2c1=O [Ciprofloxacin (CIP), Ciprofloxacin] | *** (*** = 8 fold +) | *** (*** = 8 fold +) | *** (*** = 8 fold +) |  |  |  |
| NCc1cccc(-c2ccc3nc(N4CCNCC4)c(Cl)cc3c2)c1 [Example 66, [3-(3-chloro-2-piperazin-1-yl-6-quinolyl)phenyl]methanamine;dihydrochloride] |  |  |  | 5 to 100 µM | < 5 µM | EC90 [6]: 5 to 100 µM |
| CCN1CCN(C(=O)N[C@@H](C(=O)N[C@@H]2C(=O)N3[C@@H]2SC(C)(C)[C@@H]3C(=O)O)c2ccccc2)C(=O)C1=O [Piperacillin (PPC), Piperacillin] | ** (** = 4-7.9 fold) | * (* = 2-3.9 fold) | * (* = 2-3.9 fold) |  |  |  |
| CC[C@H]1OC(=O)[C@H](C)[C@@H](O[C@H]2C[C@@](C)(OC)[C@@H](O)[C@H](C)O2)[C@H](C)[C@@H](O[C@@H]2O[C@H](C)C[C@H](N(C)C)[C@H]2O)[C@](C)(O)C[C@@H](C)C(=O)[C@H](C)[C@@H](O)[C@]1(C)O [Erythromycin (ERY), Erythromycin] | ** (** = 4-7.9 fold) | *** (*** = 8 fold +) | ** (** = 4-7.9 fold) |  |  |  |
| CN(C)Cc1cccc(-c2ccc3nc(N4CCNCC4)c(Cl)cc3c2)c1 [Example 110, 1-[3-(3-chloro-2-piperazin-1-yl-6-quinolyl)phenyl]-N,N-dimethyl-methanamine;dihydrochloride] |  |  |  | 5 to 100 µM | < 5 µM |  |
| NCCc1ccc(-c2ccc3nc(N4CCNCC4)c(Cl)cc3c2)cc1 [Example 116, 2-[4-(3-chloro-2-piperazin-1-yl-6-quinolyl)phenyl]ethanamine;dihydrochloride] |  |  |  | 5 to 100 µM | < 5 µM |  |
| CN(C)[C@@H]1C(O)=C(C(N)=O)C(=O)[C@@]2(O)C(O)=C3C(=O)c4c(O)cccc4[C@@](C)(O)[C@H]3C[C@@H]12 [Tetracycline (TET), Tetracycline] | * (* = 2-3.9 fold) | * (* = 2-3.9 fold) |  |  |  |  |
| NCCc1cccc(C#Cc2cnc(N3CCNCC3)c(Cl)c2)c1 [Example 91, 2-[3-[2-(5-chloro-6-piperazin-1-yl-3-pyridyl)ethynyl]phenyl]ethanamine; 2,2,2-trifluoroacetic acid] |  |  |  | 5 to 100 µM | < 5 µM |  |
